ChEMBL document CHEMBL5500346, “Targeting EGFR degradation by autophagosome degraders” (Eur J Med Chem, 2024)
Activity calls are given as the source filed them.

Columns and labels:
[1] = system: PC-9; experiment: Antiproliferative activity against human PC-9 cells incubated for 72 hrs by CCK8 assay; type: functional, cell-based; details: PC-9, 72 h
[2] = system: HCC827; experiment: Antiproliferative activity against human HCC827 cells incubated for 72 hrs by CCK8 assay; type: functional, cell-based; details: HCC827, 72 h
[3] = system: NCI-H3255; experiment: Antiproliferative activity against human NCI-H3255 cells incubated for 72 hrs by CCK8 assay; type: functional, cell-based; details: NCI-H3255, 72 h
[4] = system: L02; experiment: Antiproliferative activity against human HL7702 cells incubated for 72 hrs by CCK8 assay; type: toxicity, cell-based; details: l02, 72 h
[5] = system: A549; experiment: Antiproliferative activity against human A549 cells incubated for 72 hrs by CCK8 assay; type: functional, cell-based; details: A549, 72 h
[6] = system: NCI-H1975; experiment: Antiproliferative activity against human NCI-H1975 cells incubated for 72 hrs by CCK8 assay; type: functional, cell-based; details: NCI-H1975, 72 h
[7] = biological target: T1, Microtubule-associated protein 1 light chain 3 beta/Epidermal growth factor receptor (Homo sapiens, UniProt P00533+Q9GZQ8); experiment: ATTEC activity at LC3B/EGFR in human HCC827 cells assessed as protein degradation by immunoblot analysis; type: cell-based
[8] = system: PC-9; experiment: Antiproliferative activity against Gefitinib-resistant human PC-9 cells incubated for 72 hrs by CCK8 assay; type: functional, cell-based
[9] = biological target: T1, Microtubule-associated protein 1 light chain 3 beta/Epidermal growth factor receptor; experiment: ATTEC activity at LC3B/EGFR in human HCC827 cells assessed as protein degradation at 3.3 uM by immunoblot analysis relative to control; type: cell-based
[10] = biological target: T1, Microtubule-associated protein 1 light chain 3 beta/Epidermal growth factor receptor; experiment: ATTEC activity at LC3B/EGFR in human HCC827 cells assessed as protein degradation at 0.33 uM by immunoblot analysis relative to control; type: cell-based
[11] = system: PC-9; experiment: In vivo ATTEC activity at LC3B/EGFR in human PC-9 cells implanted in NOD-SCID mouse assessed as protein degradation at 20 mg/kg, ip measured after 24 hrs by Western blot analysis; type: functional, organism-based
[12] = biological target: T1, Microtubule-associated protein 1 light chain 3 beta/Epidermal growth factor receptor; experiment: ATTEC activity at LC3B/EGFR in human HCC827 cells assessed as increase in density of lysosomes incubated for 4 hrs by LysoTracker Red staining based analysis; type: cell-based
[13] = biological target: T1, Microtubule-associated protein 1 light chain 3 beta/Epidermal growth factor receptor; experiment: Binding affinity to biotinylated LC3B/EGFR in human HCC827 cells BLI assay; type: cell-based
[14] = biological target: T1, Microtubule-associated protein 1 light chain 3 beta/Epidermal growth factor receptor; experiment: Binding affinity to biotinylated LC3B/EGFR in human HCC827 cells assessed as dissociation constant BLI assay; type: cell-based
[15] = biological target: T1, Microtubule-associated protein 1 light chain 3 beta/Epidermal growth factor receptor; experiment: ATTEC activity at LC3B/EGFR in human HCC827 cells assessed as protein degradation at 0.11 uM by immunoblot analysis relative to control; type: cell-based

IC50 [1] [µM] | IC50 [2] [nM] | IC50 [3] [µM] | IC50 [5] [µM] | IC50 [6] [µM] | DC50 [7] [µM] | Emax [9] [%] | Emax [10] [%] | Activity [12] | Activity [13] | Kd [14] [nM] | Emax [15] [%] | SMILES | Activity [4] | Activity [8] | Activity [11]
1.43 | 1150 | 0.908 | > 10 | 3.18 | > 10 |  |  |  |  |  |  | COc1cc2ncnc(Nc3ccc(F)c(Cl)c3)c2cc1OCCOCCOCCNC(=O)COc1c(Br)cc(/C=C2\C(=O)Nc3ccccc32)cc1Br | Non-Toxic | Active | 
5.12 | 3840 | 2.54 | > 10 | > 10 | 2.77 |  |  |  |  |  |  | COc1cc2ncnc(Nc3ccc(F)c(Cl)c3)c2cc1OCCOCCOCCOCCNC(=O)COc1c(Br)cc(/C=C2\C(=O)Nc3ccc(Br)cc32)cc1Br | Non-Toxic | Active | 
> 10 | 210 | 6.04 | > 10 | > 10 | > 10 | 5.8 |  |  |  |  |  | COc1cc2ncnc(Nc3ccc(F)c(Cl)c3)c2cc1OCCCCNC(=O)COc1c(Br)cc(/C=C2\C(=O)Nc3ccc(I)cc32)cc1Br | Non-Toxic |  | 
7.96 | 1280 | 3.1 | > 10 | > 10 | > 10 |  | 20.2 |  |  |  |  | COc1cc2ncnc(Nc3ccc(F)c(Cl)c3)c2cc1OCCOCCNC(=O)COc1c(Br)cc(/C=C2\C(=O)Nc3ccc(I)cc32)cc1Br | Non-Toxic |  | 
6.76 | 1150 | 4.14 | > 10 | > 10 | 5.81 |  |  |  |  |  |  | COc1cc2ncnc(Nc3ccc(F)c(Cl)c3)c2cc1OCCOCCOCCOCCOCCNC(=O)COc1c(Br)cc(/C=C2\C(=O)Nc3ccc(I)cc32)cc1Br | Non-Toxic |  | 
3.78 | 937 | 1.13 | > 10 | > 10 | > 10 |  |  |  |  |  |  | COc1cc2ncnc(Nc3ccc(F)c(Cl)c3)c2cc1OCCOCCOCCOCCNC(=O)COc1c(Br)cc(/C=C2\C(=O)Nc3ccc(C)cc32)cc1Br | Non-Toxic | Active | 
> 10 | > 10000 | 5.18 | > 10 | > 10 | > 10 |  |  |  |  |  |  | COc1cc2ncnc(Nc3ccc(F)c(Cl)c3)c2cc1OCCOCCNC(=O)COc1c(Br)cc(/C=C2\C(=O)Nc3ccc(Br)cc32)cc1Br | Non-Toxic | Active | 
3.12 | 1060 | 2.84 | > 10 | > 10 | > 10 |  |  |  |  |  |  | COc1cc2ncnc(Nc3ccc(F)c(Cl)c3)c2cc1OCCOCCOCCNC(=O)COc1c(Br)cc(/C=C2\C(=O)Nc3ccc(Br)cc32)cc1Br | Non-Toxic | Active | 
3.81 | 6030 | 2 | > 10 | > 10 | 8.49 |  |  |  |  |  |  | COc1cc2ncnc(Nc3ccc(F)c(Cl)c3)c2cc1OCCOCCOCCNC(=O)COc1c(Br)cc(/C=C2\C(=O)Nc3ccc(Cl)cc32)cc1Br | Non-Toxic | Active | 
1.09 | 1720 | 1.43 | > 10 | > 10 | > 10 | 26 |  |  |  |  |  | COc1cc2ncnc(Nc3ccc(F)c(Cl)c3)c2cc1OCCOCCOCCOCCNC(=O)COc1c(Br)cc(/C=C2\C(=O)Nc3ccccc32)cc1Br | Non-Toxic | Active | 
7.72 | > 10000 | 4.85 | > 10 | > 10 | > 10 |  | 9.1 |  |  |  |  | COc1cc2ncnc(Nc3ccc(F)c(Cl)c3)c2cc1OCCOCCOCCOCCNC(=O)COc1c(Br)cc(/C=C2\C(=O)Nc3ccc(Cl)cc32)cc1Br | Non-Toxic |  | 

Continued, molecule first:

SMILES | IC50 [1] [µM] | IC50 [2] [nM] | IC50 [3] [µM] | IC50 [5] [µM] | IC50 [6] [µM] | DC50 [7] [µM] | Emax [9] [%] | Emax [10] [%] | Activity [12] | Activity [13] | Kd [14] [nM] | Emax [15] [%] | Activity [4] | Activity [8] | Activity [11]
COc1cc2ncnc(Nc3ccc(F)c(Cl)c3)c2cc1OCCOCCOCCNC(=O)COc1c(Br)cc(/C=C2\C(=O)Nc3ccc(I)cc32)cc1Br | 11.1 | 2780 | 4.79 | > 10 | > 10 | 3.62 |  |  |  |  |  |  | Non-Toxic |  | 
COc1cc2ncnc(Nc3ccc(F)c(Cl)c3)c2cc1OCCOCCOCCNC(=O)COc1c(Br)cc(/C=C2\C(=O)Nc3ccc(C)cc32)cc1Br | 1.36 | 862 | 1.83 | > 10 | > 10 | > 10 |  |  |  |  |  |  | Non-Toxic | Active | 
COc1cc2ncnc(Nc3ccc(F)c(Cl)c3)c2cc1OCCOCCNC(=O)COc1c(Br)cc(/C=C2\C(=O)Nc3ccc(C)cc32)cc1Br | 3.53 | 1720 | 2.46 | > 10 | > 10 | > 10 |  |  |  |  |  |  | Non-Toxic | Active | 
COc1cc2ncnc(Nc3ccc(F)c(Cl)c3)c2cc1OCCOCCOCCOCCNC(=O)C(C)Oc1c(Br)cc(/C=C2\C(=O)Nc3ccc(I)cc32)cc1Br (stereo not given) | 7.04 | 923 | 3.41 | > 10 | > 10 | 6.42 |  |  |  |  |  |  | Non-Toxic | Active | 
COc1cc2ncnc(Nc3ccc(F)c(Cl)c3)c2cc1OCCCN1CCOCC1 |  |  |  |  |  |  |  |  |  |  |  |  |  |  | inactive
COc1cc2ncnc(Nc3ccc(F)c(Cl)c3)c2cc1OCCOCCNC(=O)COc1c(Br)cc(/C=C2\C(=O)Nc3ccccc32)cc1Br | 3.63 | 1160 | 0.904 | > 10 | > 10 | 4.38 |  |  | Active | Active | 2200 |  | Non-Toxic |  | 
COc1cc2ncnc(Nc3ccc(F)c(Cl)c3)c2cc1OCCCCCCCCNC(=O)COc1c(Br)cc(/C=C2\C(=O)Nc3ccc(I)cc32)cc1Br | > 10 | 2190 | 6.5 | > 10 | > 10 | > 10 |  |  |  |  |  | 9.1 | Non-Toxic |  | 
COc1cc2ncnc(Nc3ccc(F)c(Cl)c3)c2cc1OCCCCCCCCCCNC(=O)COc1c(Br)cc(/C=C2\C(=O)Nc3ccc(I)cc32)cc1Br | > 10 | 976 | 4.93 | > 10 | > 10 | > 10 |  |  |  |  |  |  | Non-Toxic |  | 
COc1cc2ncnc(Nc3ccc(F)c(Cl)c3)c2cc1OCCCCCCNC(=O)COc1c(Br)cc(/C=C2\C(=O)Nc3ccc(I)cc32)cc1Br | > 10 | > 10000 | > 10 | > 10 | > 10 | > 10 |  |  |  |  |  |  | Non-Toxic |  | 
COc1cc2ncnc(Nc3ccc(F)c(Cl)c3)c2cc1OCCOCCNC(=O)COc1c(Br)cc(/C=C2\C(=O)Nc3ccc(Cl)cc32)cc1Br | > 10 | 5870 | 4.58 | > 10 | > 10 | 0.94 |  |  |  |  |  |  | Non-Toxic | Active | 
